Reference: PMC7911889 (Viruses, 2021)
pEC50: −log10 of the molar value.

Target: SARS-CoV-2 3CL^pro (Severe acute respiratory syndrome coronavirus 2, UniProt P0DTD1)
Assay type: cell-based

In the case of `CC(C)(C)NC(=O)N[C@H](C(=O)N1C[C@H]2[C@@H]([C@H]1C(=O)NC(CC1CCC1)C(=O)C(N)=O)C2(C)C)C(C)(C)C` (stereo partly drawn) [Boceprevir], the “Effect on luciferase reporter activity / 3CL^pro inhibition (in words)” value was “clearly inhibited SARS-CoV-2 3CL^pro”.

`CC(NC(=O)[C@H](Cc1ccccc1)NC(=O)OCc1ccccc1)C(=O)CF` (stereo partly drawn) [Z-FA-FMK] was tested, and the “Effect on luciferase reporter activity / 3CL^pro inhibition (in words)” value was “clearly inhibited SARS-CoV-2 3CL^pro” and the pEC50 (read-out: EC50, SARS-CoV-2 3CLpro luciferase complementation assay) was 4.58.
